{
  "source": "patent US7816099B1",
  "about": "“Enzyme assay and use thereof” (Myrexis, Inc., priority 2005, dated 2010)",
  "key": {"Aurora-A": {"biological_target": "T1, Aurora-A (Homo sapiens, UniProt O14965)", "T1 construct": "Aurora-A(101-403) (the latter protein was generated by cleavage of the GST fusion precursor with thrombin); GST (cleaved yes); made in house", "T1 sequence (O14965 101-403)": "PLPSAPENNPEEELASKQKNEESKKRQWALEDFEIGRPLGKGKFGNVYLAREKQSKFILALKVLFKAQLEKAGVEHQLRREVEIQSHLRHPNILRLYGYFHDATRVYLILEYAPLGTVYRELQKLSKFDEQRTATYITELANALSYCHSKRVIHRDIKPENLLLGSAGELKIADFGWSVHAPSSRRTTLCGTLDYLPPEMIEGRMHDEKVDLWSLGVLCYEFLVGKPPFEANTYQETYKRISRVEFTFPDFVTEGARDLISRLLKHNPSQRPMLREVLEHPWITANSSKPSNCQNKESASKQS", "T1 sequence (Q9ULW0 1-50 partner limits assumed)": "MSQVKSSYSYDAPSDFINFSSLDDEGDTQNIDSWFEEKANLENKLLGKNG", "experiment": "High throughput fluorometric assay for the TPX2-stimulated protein kinase activity of Aurora-A", "format": "biochemical", "conditions": "FIG. 4E; wild type or D274A mutant enzyme at 25 nM or 1.25 μM ADP; 5 μM ATP, 10 mM MgCl2", "description": "High throughput fluorometric assay for the TPX2-stimulated protein kinase activity of Aurora-A. All the experiments were conducted using 50 mM Tris-HCl, pH 7.5, 5 μM ATP, 10 mM MgCl2 as the assay buffer. The data shown on FIGS. 4A and 4B were generated using two-step assay procedure including Aurora-A-catalyzed kinase reaction followed by the assay of ADP produced. All other experiments were performed using single step assay format. FIG. 4A, comparative analysis of kinase activities of the wild type enzyme and D274A mutant protein performed in the absence of TPX-2. FIG. 4B, effects of GST-TPX2(1-50) on kinase activity. FIG. 4C, time course of signal development for the assays conducted using 25 nM kinase in the absence or in the presence of 50 nM GST-TPX2(1-50). The D274A mutant enzyme was used as negative control. FIG. 4D, time dependence of S/B ratio calculated using data shown on FIG. 4C. The background was defined as the fluorescence intensity of the samples supplemented with the mutant Aurora-A. FIG. 4E, inhibition of Aurora-A activity by staurosporine. The assays were performed using wild type or D274A mutant enzyme at 25 nM concentrations or 1.25 μM ADP. FIG. 4F, SDS-PAGE analysis of the recombinant GST-TPX2(1-50) and Aurora-A(101-403) (the latter protein was generated by cleavage of the GST fusion precursor with thrombin)."}, "Mst4 kinase": {"biological_target": "T2, Mst4 kinase (Homo sapiens, UniProt Q9P289)", "T2 construct": "SDS-PAGE analysis of GST-Mst4(1-317) purified from bacterial cells; made in house; host or cells: bacterial cells", "T2 sequence (Q9P289 1-317)": "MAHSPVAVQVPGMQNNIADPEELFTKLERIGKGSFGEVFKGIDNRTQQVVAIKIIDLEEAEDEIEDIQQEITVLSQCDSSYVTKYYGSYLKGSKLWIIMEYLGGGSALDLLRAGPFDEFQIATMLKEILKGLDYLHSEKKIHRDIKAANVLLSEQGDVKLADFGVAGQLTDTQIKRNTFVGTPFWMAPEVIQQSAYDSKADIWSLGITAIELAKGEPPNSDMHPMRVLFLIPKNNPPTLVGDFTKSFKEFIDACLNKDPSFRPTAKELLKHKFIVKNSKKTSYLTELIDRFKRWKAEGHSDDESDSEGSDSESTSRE", "experiment": "High throughput assay for the Mst4 protein kinase activity", "format": "biochemical", "conditions": "FIG. 5C; 25 nM protein kinase; 1.25 μM ADP in control samples", "procedure": "High throughput assay for the Mst4 protein kinase activity. […] FIG. 5C, inhibition of Mst4 kinase by staurosporine. The assay was performed using 25 nM protein kinase. The combination of Mst4 and ATP was substituted with 1.25 μM ADP in control samples."}},
  "data": [
    {"smiles": "CN[C@@H]1C[C@H]2O[C@@](C)([C@@H]1OC)n1c3ccccc3c3c4c(c5c6ccccc6n2c5c31)C(=O)NC4", "note": "[staurosporine]", "values": [
      {"measurement": "inhibition of Aurora-A activity", "setting": "Aurora-A", "result": "inhibition"},
      {"measurement": "inhibition of Mst4 kinase", "setting": "Mst4 kinase", "result": "inhibition"}
    ]}
  ]
}
